Consider one molecule from patent US7550467B2 (Schering Corporation, priority 2004, dated 2009).

Where only a bound is given, the exact number is not on record here.

The target in this assay is T1, MCH receptor (Homo sapiens, UniProt Q99705).
T1 construct: expressed in transfected cells; host or cells: CHO cells
Nature of the assay: MCH Receptor Binding Assay ([125I]-MCH, SPA beads, membranes from CHO cells expressing the MCH receptor). The method, then:
MCH Receptor Binding Assay:
Membranes from CHO cells expressing the MCH receptor were prepared by lysing cells with 5 mM HEPES for 15 minutes at 4° C. Cell lysates were centrifuged ([…], 15 minutes) and the pellet was resuspended in 5 mM HEPES. For each 96-well plate (Microlite, Dynex Technologies), 1 mg of cell membranes were incubated with 10 mg of wheat germ agglutinin SPA beads (Amersham) for 5 minutes at 4° C. in a volume of 10 ml of binding buffer (25 mM HEPES, 10 mM MGCl2, 10 mM NaCl, 5 mM MnCl2, 0.1% BSA). The membrane/bead mixture was centrifuged (1500×g, 3.5 min), the supernatant was aspirated, and the pellet was resuspended in 10 ml binding buffer. The centrifugation, aspiration and resuspension were then repeated. The membrane/bead mixture (100 μl) was then added to 96-well plates containing 50 μl of 500 pM [^125I]-MCH (NEN) and […] of the appropriate concentration of compound (4X the desired final concentration). Nonspecific binding was determined by including 1 μM MCH in the binding reaction. The binding reaction was incubated at room temperature for 2 hours. Plates were then analyzed in a TOPCOUNT microplate scintillation counter (Packard). Data was analyzed and Ki values were determined using GraphPad Prism.

T1 sequence (Q99705 whole entry): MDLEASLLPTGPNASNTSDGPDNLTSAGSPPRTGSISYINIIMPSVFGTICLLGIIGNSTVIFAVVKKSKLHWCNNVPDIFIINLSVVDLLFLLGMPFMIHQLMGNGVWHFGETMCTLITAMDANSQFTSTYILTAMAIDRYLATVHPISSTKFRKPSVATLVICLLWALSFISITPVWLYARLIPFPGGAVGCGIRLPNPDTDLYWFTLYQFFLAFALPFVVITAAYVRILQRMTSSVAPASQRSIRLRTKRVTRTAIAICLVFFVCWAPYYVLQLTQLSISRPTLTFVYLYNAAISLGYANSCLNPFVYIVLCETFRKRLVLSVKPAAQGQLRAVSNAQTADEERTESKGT

`CCNC(=O)Nc1ccc2c(c1)CC(N(CCCN1CCN(C)CC1)C(=O)Nc1ccc(F)c(Cl)c1)CC2` (centres unmarked) [Compound IX, 1-(7-{3-(3-chloro-4-fluoro-phenyl)-1-[3-(4-methyl-piperazin-1-yl)-propyl]-ureido}-5,6,7,8-tetrahydro-naphthalen-2-yl)-3-ethyl-urea]: the Ki (commonly a dissociation constant, usually derived from enzyme kinetics or from competition with a known ligand) is less than 1000 nM (Ki rating (class)) and 157 nM ([125I]-MCH).
